Values of other authors in patent US20220202680A1, “INCREASING THE STABILITY OF AGENTS FOR TREATING KERATIN MATERIAL” (Henkel AG & Co. KGaA, priority 2019, published 2022).

Details: for solubility in water: 25° C.

Row | solubility in water (in words) (at 25° C.) | Compound | solubility in water
1 |  | O=S(=O)([O-])c1ccc(N=Nc2c(O)ccc3ccccc23)cc1.[Na+] [Acid Orange 7, sodium salt of 4-[(2-hydroxy-1-naphthyl)azo]benzene sulphonate] | more than 7 g/L
2 |  | Nc1cc(S(=O)(=O)[O-])cc2cc(S(=O)(=O)[O-])c(N=Nc3ccccc3)c(O)c12.[Na+].[Na+] [Acid Red 33, diantrium salt of 5-amino-4-hydroxy-3-(phenylazo)-naphthalene-2,7-disulphonate] | 2500 µg/mL
3 |  | O=C([O-])c1c(Cl)c(Cl)c(Cl)c(Cl)c1-c1c2c(Br)cc(=O)c(Br)c-2oc2c(Br)c(O)cc(Br)c12.O=C([O-])c1c(Cl)c(Cl)c(Cl)c(Cl)c1-c1c2c(Br)cc(=O)c(Br)c-2oc2c(Br)c(O)cc(Br)c12.[Na+].[Na+] [Acid Red 92, disodium salt of 3,4,5,6-tetrachloro-2-(1,4,5,8-tetrabromo-6-hydroxy-3-oxoxanthen-9-yl)benzoic acid] | greater than 10 g/L
4 | highly soluble | O=C([O-])C1=NN(c2ccc(S(=O)(=O)[O-])cc2)C(=O)C1N=Nc1ccc(S(=O)(=O)[O-])cc1.[Na+].[Na+].[Na+] (stereo not shown) [Acid Yellow 23, trisodium salt of 4,5-dihydro-5-oxo-1-(4-sulfophenyl)-4-((4-sulfophenyl)azo)-1H-pyrazole-3-carboxylic acid] | 
